# Results from US20220324835A1 (Nurix Therapeutics, Inc., priority 2018, published 2022).
# pIC50: −log10 of the molar value. Where two headings read alike, the source gives them in different places.
# Columns and labels:
# [1] = tested on: primary human total T-cells; assay: T-cell activation assessed by cell proliferation (Cell Trace Violet); type: cell-based
# Procedure, shortened: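 Readouts are fold change versus compound-free cells under the same stimulation: plate-bound anti-CD3 (OKT3, 10 μg/mL coating) alone or with soluble anti-CD28 at 5 μg/mL, for 48 h. Isolated human total T cells (1×10^5/well) got inhibitor 1 h beforehand at concentrations such as 10, 1.11 or 0.123 μM. Measured: GM-CSF/IFNγ/TNFα secretion, surface CD69, proliferation by dye dilution.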
# T-cell [2] = assay: CD25 cell surface staining on T-cells co-stimulated with anti-CD3 and anti-CD28 antibody (Biological Example 2); type: cell-based, human; settings: Homo sapiens, T-cell
# Procedure, shortened: (§1)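 T-cells were stimulated with anti-CD3 antibody alone or with anti-CD28 antibody, in the presence or absence of Cbl-b inhibitor. IL-2 secretion or CD25 surface staining was measured, and values expressed as fold over the uninhibited baseline […].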
# Cbl-b = Cbl-b (Homo sapiens, UniProt Q13191); assay: Cbl-b activity assay (Cbl-b inhibition assay), TR-FRET of Cbl-b interaction with UbcH5B-Ub; type: biochemical; settings: assay buffer with 100 mM NaCl, 60 nM Src kinase; read-out: Cbl-b activity IC50
# Cbl-b, sequence (Q13191 36-427): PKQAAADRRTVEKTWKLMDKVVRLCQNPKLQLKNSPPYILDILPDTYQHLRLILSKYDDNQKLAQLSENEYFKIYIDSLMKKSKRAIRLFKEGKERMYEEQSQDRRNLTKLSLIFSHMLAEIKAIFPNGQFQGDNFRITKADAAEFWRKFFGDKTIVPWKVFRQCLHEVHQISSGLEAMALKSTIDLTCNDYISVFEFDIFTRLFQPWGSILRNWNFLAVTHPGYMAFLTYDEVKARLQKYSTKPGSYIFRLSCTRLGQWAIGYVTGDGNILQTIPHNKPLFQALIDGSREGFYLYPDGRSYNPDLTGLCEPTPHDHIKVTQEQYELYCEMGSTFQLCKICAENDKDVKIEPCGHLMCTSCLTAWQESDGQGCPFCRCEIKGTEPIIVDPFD
# Procedure, shortened: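 UbcH5B (C85K) conjugated to N-terminally Bodipy-Fluorescein-labeled ubiquitin served as the fluorescent partner. After compound preincubation, Src kinase (60 nM) with 1 mM ATP and 5 mM MgCl2 (final) was added for 1.5 h, followed by a further 1 h incubation. Some values were obtained with 50 mM NaCl and 30 nM Src.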
# T-cell [3] = assay: IL-2 secretion from T-cells co-stimulated with anti-CD3 and anti-CD28 antibody (Biological Example 2); type: cell-based, human; settings: Homo sapiens, T-cell
# Procedure, shortened: as §1
# [4] = CD3/CD28 stimulation, CD4 T-cells, read-out: % CP (cell proliferation) (CD4)
# [5] = CD3/CD28 stimulation, CD8 T-cells, read-out: % CP (cell proliferation) (CD8)
# [6] = CD3 alone stimulation, CD8 T-cells, read-out: % CP (cell proliferation) (CD8)
# [7] = fold change over baseline, 0.3 μM Cbl-b inhibitor, primary human total T-cells, read-out: CD25 staining Anti-CD3/Anti-CD28 stimulation
# [8] = fold change over baseline, 1 μM Cbl-b inhibitor, primary human total T-cells, read-out: CD25 staining Anti-CD3/Anti-CD28 stimulation
# [9] = fold change over baseline, 4 μM Cbl-b inhibitor, primary human total T-cells, read-out: CD25 staining Anti-CD3/Anti-CD28 stimulation
# [10] = fold change over baseline, 0.3 μM Cbl-b inhibitor, primary human total T-cells, read-out: IL-2 secretion Anti-CD3/Anti-CD28 stimulation
# [11] = fold change over baseline, 1 μM Cbl-b inhibitor, primary human total T-cells, read-out: IL-2 secretion Anti-CD3/Anti-CD28 stimulation
# [12] = fold change over baseline, 4 μM Cbl-b inhibitor, primary human total T-cells, read-out: IL-2 secretion Anti-CD3/Anti-CD28 stimulation
# [13] = 0.3 μM compound, primary human total T-cells, baseline = anti-CD3/anti-CD28 stimulated cells without inhibitor, read-out: CD25 staining, Anti-CD3/Anti-CD28 stimulation, fold change over baseline
# [14] = 1 μM compound, primary human total T-cells, baseline = anti-CD3/anti-CD28 stimulated cells without inhibitor, read-out: CD25 staining, Anti-CD3/Anti-CD28 stimulation, fold change over baseline
# [15] = 4 μM compound, primary human total T-cells, baseline = anti-CD3/anti-CD28 stimulated cells without inhibitor, read-out: CD25 staining, Anti-CD3/Anti-CD28 stimulation, fold change over baseline
# [16] = 0.3 μM compound, primary human total T-cells, baseline = anti-CD3/anti-CD28 stimulated cells without inhibitor, read-out: IL-2 secretion, Anti-CD3/Anti-CD28 stimulation, fold change over baseline
# [17] = 1 μM compound, primary human total T-cells, baseline = anti-CD3/anti-CD28 stimulated cells without inhibitor, read-out: IL-2 secretion, Anti-CD3/Anti-CD28 stimulation, fold change over baseline
# [18] = 4 μM compound, primary human total T-cells, baseline = anti-CD3/anti-CD28 stimulated cells without inhibitor, read-out: IL-2 secretion, Anti-CD3/Anti-CD28 stimulation, fold change over baseline
SMILES,"fold induction at 1.11 µM [1, 4]","fold induction at 10 µM [1, 4]","fold induction at 1.11 µM [1, 5]","fold induction at 10 µM [1, 5]","fold induction at 1.11 µM [1, 6]","fold induction at 10 µM [1, 6]",fold induction at 0.3 µM (T-cell [2]; [7]),fold induction at 1 µM (T-cell [2]; [8]),fold induction at 4 µM (T-cell [2]; [9]),pIC50 (Cbl-b),fold induction at 0.3 µM (T-cell [3]; [10]),fold induction at 1 µM (T-cell [3]; [11]),fold induction at 4 µM (T-cell [3]; [12]),other results
"C[C@H](Sc1nncn1C)c1cccc(NC(=O)c2cc(C(=O)N3CC[C@H](O)C3)ccn2)c1 [Compound 140, 4-[[(3S)-3-hydroxypyrrolidin-1-yl]carbonyl]-N-[3-[(1S)-1-[(4-methyl-4H-1,2,4-triazol-3-yl)sulfanyl]ethyl]phenyl]pyridine-2-carboxamide]",> 4,> 4,> 4,> 4,> 4,> 4,1.01 to 1.3,1.01 to 1.3,1.01 to 1.3,6.52 to 7.00,< 1,< 1,< 1,–
"C[C@H](Cc1nncn1C)c1cccc(NC(=O)c2cccc(CCO)n2)c1 [Compound 202, 6-(2-hydroxyethyl)-N-[3-[(2R)-1-(4-methyl-4H-1,2,4-triazol-3-yl)propan-2-yl]phenyl]pyridine-2-carboxamide]",< 2,3.01 to 4,< 2,2.01 to 3,< 2,< 2,1.01 to 1.3,1.01 to 1.3,1.31 to 1.5,6.00 to 6.52,1.01 to 2.5,1.01 to 2.5,2.51 to 5,–
"C[C@H](Cc1nncn1C)c1cccc(N2Cc3c(ccnc3C3CC3)C2=O)c1 [Compound 257, 4-cyclopropyl-2-[3-[(1R)-1-methyl-2-(4-methyl-1,2,4-triazol-3-yl)ethyl]phenyl]-3H-pyrrolo[3,4-c]pyridin-1-one]",2.01 to 3,> 4,< 2,3.01 to 4,< 2,3.01 to 4,1.01 to 1.3,1.01 to 1.3,1.31 to 1.5,6.52 to 7.00,1.01 to 2.5,1.01 to 2.5,1.01 to 2.5,–
"Cn1cnnc1[C@@H]1C[C@@H]1c1cccc(N2Cc3c(cccc3C(F)(F)F)C2=O)c1 [Compound 282, 2-(3-((1S,2R)-2-(4-methyl-4H-1,2,4-triazol-3-yl)cyclopropyl)phenyl)-4-(trifluoromethyl)isoindolin-1-one]",< 2,> 4,< 2,2.01 to 3,< 2,3.01 to 4,> 1.76,> 1.76,> 1.76,6.00 to 6.52,< 1,1.01 to 2.5,2.51 to 5,–
"C[C@H](Cc1nncn1C)c1cccc(NC(=O)c2nc(C(F)(F)F)c[nH]2)c1 [Compound 326, (R)-N-(3-(1-(4-methyl-4H-1,2,4-triazol-3-yl)propan-2-yl)phenyl)-4-(trifluoromethyl)-1H-imidazole-2-carboxamide]",2.01 to 3,> 4,2.01 to 3,3.01 to 4,2.01 to 3,> 4,1.01 to 1.3,1.01 to 1.3,1.01 to 1.3,6.52 to 7.00,1.01 to 2.5,2.51 to 5,2.51 to 5,–
"Cn1cnnc1[C@@H]1C[C@@H]1c1cccc(N2Cc3c(ccnc3C(F)(F)F)C2=O)c1 [Compound 369, 2-{3-[(1S,2R)-2-(4-methyl-4H-1,2,4-triazol-3-yl)cyclopropyl]phenyl}-4-(trifluoromethyl)-1H,2H,3H-pyrrolo[3,4-c]pyridin-1-one]",< 2,> 4,< 2,2.01 to 3,< 2,< 2,–,–,–,6.00 to 6.52,–,–,–,fold induction at 0.3 µM (T-cell [2]; [13]): 1.01 to 1.3; fold induction at 1 µM (T-cell [2]; [14]): 1.01 to 1.3; fold induction at 4 µM (T-cell [2]; [15]): 1.01 to 1.3; fold induction at 0.3 µM (T-cell [3]; [16]): 1.01 to 2.5; fold induction at 1 µM (T-cell [3]; [17]): 1.01 to 2.5; fold induction at 4 µM (T-cell [3]; [18]): 1.01 to 2.5
"Cc1cc2c(c(C3CC3)n1)CN(c1cccc([C@H](C)Cc3nncn3C)c1)C2=O [Compound 372, 4-cyclopropyl-6-methyl-2-{3-[(2R)-1-(4-methyl-4H-1,2,4-triazol-3-yl)propan-2-yl]phenyl}-1H,2H,3H-pyrrolo[3,4-c]pyridin-1-one]",< 2,> 4,< 2,2.01 to 3,< 2,2.01 to 3,–,–,–,6.00 to 6.52,–,–,–,fold induction at 0.3 µM (T-cell [2]; [13]): 1.01 to 1.3; fold induction at 1 µM (T-cell [2]; [14]): 1.01 to 1.3; fold induction at 4 µM (T-cell [2]; [15]): 1.01 to 1.3; fold induction at 0.3 µM (T-cell [3]; [16]): 1.01 to 2.5; fold induction at 1 µM (T-cell [3]; [17]): 1.01 to 2.5; fold induction at 4 µM (T-cell [3]; [18]): 2.51 to 5
"C[C@H](Cc1nncn1C)c1cc(-c2cn[nH]c2)nc(N2Cc3c(cccc3C(F)(F)F)C2=O)c1 [Example 684, (R)-2-(4-(1-(4-methyl-4H-1,2,4-triazol-3-yl)propan-2-yl)-6-(1H-pyrazol-4-yl)pyridin-2-yl)-4-(trifluoromethyl)isoindolin-1-one]",–,–,–,–,–,–,–,–,–,6.00 to 6.52,–,–,–,"fold induction at 0.3 µM (T-cell [2]; 0.3 μM Cbl-b inhibitor, fold change over baseline (anti-CD3/anti-CD28 stimulated T-cells without inhibitor), read-out: CD25 staining Anti-CD3/Anti-CD28 stimulation): < 1; fold induction at 1 µM (T-cell [2]; 1 μM Cbl-b inhibitor, fold change over baseline (anti-CD3/anti-CD28 stimulated T-cells without inhibitor), read-out: CD25 staining Anti-CD3/Anti-CD28 stimulation): < 1; fold induction at 0.3 µM (T-cell [3]; 0.3 μM Cbl-b inhibitor, fold change over baseline (anti-CD3/anti-CD28 stimulated T-cells without inhibitor), read-out: IL-2 secretion Anti-CD3/Anti-CD28 stimulation): < 1; fold induction at 1 µM (T-cell [3]; 1 μM Cbl-b inhibitor, fold change over baseline (anti-CD3/anti-CD28 stimulated T-cells without inhibitor), read-out: IL-2 secretion Anti-CD3/Anti-CD28 stimulation): < 1"
